From PubChem BioAssay (NCI)
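Exposure lasted 48 hours, with cells grown in 96-well plates and compounds tested at five concentrations. GI50 = concentration required for 50% inhibition of growth. At the TGI there is no net growth.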

How the values were obtained:
Experiment in all cases: inhibition of tumour cell growth, NCI panel, 48 h
NCI/ADR-RES ovarian = tested on: NCI/ADR-RES ovarian
UACC-62 melanoma = tested on: UACC-62 melanoma
SK-MEL-28 melanoma = tested on: SK-MEL-28 melanoma
MDA-MB-231 breast = tested on: MDA-MB-231 breast
NCI-H23 lung = tested on: NCI-H23 lung
EKVX NSCLC = tested on: EKVX NSCLC
RPMI-8226 leukemia = tested on: RPMI-8226 leukemia
HCT-15 colon = tested on: HCT-15 colon
HOP-92 NSCLC = tested on: HOP-92 NSCLC
COLO 205 colon = tested on: COLO 205 colon
MALME-3M melanoma = tested on: MALME-3M melanoma
K-562 leukemia = tested on: K-562 leukemia
CAKI-1 renal = tested on: CAKI-1 renal
IGROV1 ovarian = tested on: IGROV1 ovarian
SF-268 CNS = tested on: SF-268 CNS
BT-549 breast = tested on: BT-549 breast
SK-OV-3 ovarian = tested on: SK-OV-3 ovarian
ACHN renal = tested on: ACHN renal
NCI-H522 lung = tested on: NCI-H522 lung
SK-MEL-5 melanoma = tested on: SK-MEL-5 melanoma
A549 NSCLC = tested on: A549 NSCLC
SW-620 colon = tested on: SW-620 colon
UO-31 renal = tested on: UO-31 renal
RXF 393 renal = tested on: RXF 393 renal
OVCAR-3 ovarian = tested on: OVCAR-3 ovarian
SF-539 CNS = tested on: SF-539 CNS
HL-60(TB) leukemia = tested on: HL-60(TB) leukemia
MDA-MB-435 = tested on: MDA-MB-435
HT29 colon = tested on: HT29 colon
NCI-H226 lung = tested on: NCI-H226 lung
UACC-257 melanoma = tested on: UACC-257 melanoma
SF-295 CNS = tested on: SF-295 CNS
NCI-H460 lung = tested on: NCI-H460 lung
PC-3 prostate = tested on: PC-3 prostate
DU-145 prostate = tested on: DU-145 prostate
HOP-62 NSCLC = tested on: HOP-62 NSCLC
T-47D breast = tested on: T-47D breast
CCRF-CEM leukemia = tested on: CCRF-CEM leukemia
SK-MEL-2 melanoma = tested on: SK-MEL-2 melanoma
SNB-75 CNS = tested on: SNB-75 CNS
OVCAR-5 ovarian = tested on: OVCAR-5 ovarian
M14 melanoma = tested on: M14 melanoma
OVCAR-4 ovarian = tested on: OVCAR-4 ovarian
KM12 colon = tested on: KM12 colon
HS 578T breast = tested on: HS 578T breast

N=C(N)c1ccc(-c2ccc(-c3ccc(F)cc3)s2)nc1 gave a GI50 (NCI/ADR-RES ovarian) of 2.72 µM, a TGI (NCI/ADR-RES ovarian) of 6.86 µM and a GI50 (UACC-62 melanoma) of 1.94 µM. It also gave a TGI (UACC-62 melanoma) of 4.24 µM, a GI50 (SK-MEL-28 melanoma) of 2.13 µM and a TGI (SK-MEL-28 melanoma) of 4.45 µM. For the same compound, the GI50 (MDA-MB-231 breast) was 1.73 µM, the TGI (MDA-MB-231 breast) was 3.26 µM and the GI50 (NCI-H23 lung) was 2.87 µM. It also gave a TGI (NCI-H23 lung) of 8.99 µM, a GI50 (EKVX NSCLC) of 4.26 µM and a TGI (EKVX NSCLC) of 22.9 µM. The GI50 (RPMI-8226 leukemia) was 2.68 µM, the TGI (RPMI-8226 leukemia) was 6.83 µM and the GI50 (HCT-15 colon) was 1.84 µM. For the same compound, the TGI (HCT-15 colon) was 3.56 µM, the GI50 (HOP-92 NSCLC) was 2.02 µM and the TGI (HOP-92 NSCLC) was 8.58 µM. The GI50 (COLO 205 colon) was 2.12 µM, the TGI (COLO 205 colon) was 4.76 µM and the GI50 (MALME-3M melanoma) was 1.71 µM. The TGI (MALME-3M melanoma) was 3.21 µM, the GI50 (K-562 leukemia) was 0.374 µM and the TGI (K-562 leukemia) was 1.75 µM. It also gave a GI50 (CAKI-1 renal) of 1.67 µM, a TGI (CAKI-1 renal) of 3.06 µM and a GI50 (IGROV1 ovarian) of 1.78 µM. For the same compound, the TGI (IGROV1 ovarian) was 3.61 µM, the GI50 (SF-268 CNS) was 2.51 µM and the TGI (SF-268 CNS) was 6.98 µM. For the same compound, the GI50 (BT-549 breast) was 5.11 µM, the TGI (BT-549 breast) was 30.1 µM and the GI50 (SK-OV-3 ovarian) was 11 µM. For the same compound, the TGI (SK-OV-3 ovarian) was 28.9 µM, the GI50 (ACHN renal) was 1.81 µM and the TGI (ACHN renal) was 3.2 µM. For the same compound, the GI50 (NCI-H522 lung) was 2.05 µM, the TGI (NCI-H522 lung) was 4.63 µM and the GI50 (SK-MEL-5 melanoma) was 1.8 µM. It also gave a TGI (SK-MEL-5 melanoma) of 3.24 µM, a GI50 (A549 NSCLC) of 2.11 µM and a TGI (A549 NSCLC) of 4.78 µM. For the same compound, the GI50 (SW-620 colon) was 1.84 µM, the TGI (SW-620 colon) was 3.65 µM and the GI50 (UO-31 renal) was 1.53 µM. The TGI (UO-31 renal) was 2.87 µM, the GI50 (RXF 393 renal) was 3.84 µM and the TGI (RXF 393 renal) was 16.9 µM. For the same compound, the GI50 (OVCAR-3 ovarian) was 1.77 µM, the TGI (OVCAR-3 ovarian) was 3.26 µM and the GI50 (SF-539 CNS) was 1.75 µM. For the same compound, the TGI (SF-539 CNS) was 3.2 µM, the GI50 (HL-60(TB) leukemia) was 1.46 µM and the TGI (HL-60(TB) leukemia) was 3.38 µM. The GI50 (MDA-MB-435) was 1.71 µM, the TGI (MDA-MB-435) was 3.17 µM and the GI50 (HT29 colon) was 2.13 µM. The TGI (HT29 colon) was 5.52 µM, the GI50 (NCI-H226 lung) was 10.3 µM and the TGI (NCI-H226 lung) was 32.9 µM. The GI50 (UACC-257 melanoma) was 2.2 µM, the TGI (UACC-257 melanoma) was 5.12 µM and the GI50 (SF-295 CNS) was 1.85 µM. It also gave a TGI (SF-295 CNS) of 3.63 µM, a GI50 (NCI-H460 lung) of 1.88 µM and a TGI (NCI-H460 lung) of 3.68 µM. It also gave a GI50 (PC-3 prostate) of 2.23 µM, a TGI (PC-3 prostate) of 6.04 µM and a GI50 (DU-145 prostate) of 1.83 µM. For the same compound, the TGI (DU-145 prostate) was 3.27 µM, the GI50 (HOP-62 NSCLC) was 2.39 µM and the TGI (HOP-62 NSCLC) was 6.21 µM. The GI50 (T-47D breast) was 2.18 µM, the TGI (T-47D breast) was 6.68 µM and the GI50 (CCRF-CEM leukemia) was 2.46 µM. The TGI (CCRF-CEM leukemia) was 6.06 µM, the GI50 (SK-MEL-2 melanoma) was 3.23 µM and the TGI (SK-MEL-2 melanoma) was 9.95 µM. For the same compound, the GI50 (SNB-75 CNS) was 1.55 µM, the TGI (SNB-75 CNS) was 4.05 µM and the GI50 (OVCAR-5 ovarian) was 1.73 µM. For the same compound, the TGI (OVCAR-5 ovarian) was 3.3 µM, the GI50 (M14 melanoma) was 1.79 µM and the TGI (M14 melanoma) was 3.69 µM. The GI50 (OVCAR-4 ovarian) was 1.87 µM, the TGI (OVCAR-4 ovarian) was 3.67 µM and the GI50 (KM12 colon) was 1.92 µM. The TGI (KM12 colon) was 3.57 µM, the GI50 (HS 578T breast) was 2.72 µM and the TGI (HS 578T breast) was 8.89 µM.
